Assay results published in patent US10577336B2, “Morpholine and 1,4-oxazepane amides as somatostatin receptor subtype 4 (SSTR4) agonists” (Boehringer Ingelheim International GmbH, priority 2014, dated 2020).

Legend:
[1] = target: human Somatostatin 4 receptor (hSSTR4) (Homo sapiens (Human), UniProt P31391); experiment: cAMP assay with human somatostatin 4 receptor (inhibition of forskolin-stimulated cAMP, hSSTR4 expressing H4 cells); format: cell-based; details: read-out: SSTR4 agonism EC50
in vitro = details: human, microsomes, pH 7.6
[2] = Metabolic stability in pooled human liver microsomes (half-life); details: 37° C., 1 μM test compound

human Somatostatin 4 receptor (hSSTR4), sequence (P31391 whole entry): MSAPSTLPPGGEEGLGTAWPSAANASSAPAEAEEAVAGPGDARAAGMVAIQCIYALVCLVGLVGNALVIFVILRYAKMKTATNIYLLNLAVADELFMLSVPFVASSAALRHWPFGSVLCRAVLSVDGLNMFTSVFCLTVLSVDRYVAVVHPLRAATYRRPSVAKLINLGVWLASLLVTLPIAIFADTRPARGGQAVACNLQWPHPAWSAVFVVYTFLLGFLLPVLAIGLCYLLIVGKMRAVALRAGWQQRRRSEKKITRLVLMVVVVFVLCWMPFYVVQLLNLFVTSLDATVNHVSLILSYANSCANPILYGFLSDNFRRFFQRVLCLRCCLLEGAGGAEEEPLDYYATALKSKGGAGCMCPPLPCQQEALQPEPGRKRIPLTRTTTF

Compound	EC50 [1]	half-life at 1 μM (in vitro)	Half-life t1/2 [2]
CC(C)(NC(=O)C1CNCCOC1)c1noc2c(Cl)cccc12 (single isomer, unassigned) [Example 73]	8.4 nM	> 2.17 h	
CC(C)(NC(=O)[C@H]1CNCCO1)c1ccnc2ccccc12 [Example 8]	258 nM		
Cn1nc(C(C)(C)NC(=O)[C@@H]2CNCCO2)c2cccc(Cl)c21 [Example 79]			1.67 h
Cc1nc(C(C)(C)NC(=O)[C@@H]2CNCCO2)n2cccc(F)c12 [Example 98]	85.3 nM		
COc1cccn2c(C(C)(C)NC(=O)[C@@H]3CNCCO3)ncc12 [Example 99]	43.4 nM		

More lines, now with the values ahead:

EC50 [1]	half-life at 1 μM (in vitro)	Half-life t1/2 [2]	Compound
17.3 nM			CC(C)(NC(=O)C1CNCCOC1)c1noc2c(Cl)cccc12 (racemic) [Example 72]
10 nM			Cn1nc(C(C)(C)NC(=O)C2CNCCOC2)c2cccc(F)c21 (racemic) [Example 76]
20.4 nM			Cc1cccn2c(C3(NC(=O)C4CNCCOC4)CC3)ncc12 (stereo not shown) [Example 5]
		>2.17 h	Cc1cccc2c(C(C)(C)NC(=O)[C@@H]3CNCCO3)nn(C)c12 [Example 83]
